US9226929B2, “Pharmaceutically active disubstituted triazine derivatives” (Bayer Intellectual Property GMBH, priority 2011, dated 2016)
pIC50: −log10 of the molar value.

Columns and labels:
Assay type in all cases: cell-based
[1] = system: LPS-induced TNF alpha release in PBMCs; assay: TNF alpha Release Assay; conditions: Homo sapiens, PBMC, 1 μg/mL LPS, 6 h, read-out: TNF alpha release (activity range), IC50
Experimental: 3.3 TNF alpha Release Assay
Freshly isolated peripheral blood mononuclear cells (PBMCs) were seeded in 96-well cell culture plates with 200,000 cells in 100 μl cell culture medium (DMEM cell culture medium+glutamine from PAN Biotech GmbH, Aidenbach, Germany) supplemented with 10% fetal calf serum (PAA Laboratories GmbH, Pasching, Austria) per well and incubated overnight at 37° C., 5% CO2. To each well, 100 μL cell culture medium with 2× concentrated test compounds diluted from 10 mM DMSO stocks, or 100 μL DMEM with 0.4% DMSO for control wells, was added. The compounds of general formula (I) summarized in Table 6 were used in this assay. After incubation for 1 h at 37° C., 5% CO2, cells were stimulated with 1 μg/mL LPS (Lipopolysaccharides, Sigma, catalog #L4391-1 MG; 1 mg/ml stock solution), or left untreated for negative controls, and plates were incubated for 6 h at 37° C./5% CO2. The cell culture plates were centrifuged at 2000 rpm for 5 minutes, and supernatants were transferred to fresh 96-well polypropylene plates. 25 μL of supernatants were transferred into 96-well-plates of the human TNF alpha-tissue culture kit (Meso Scale Discovery, Gaithersburg, Md., USA), and manufacturer's instructions were followed for analysis of TNF alpha levels. […]

MDAMB468 cells = assay: Cell Viability Assay, MDAMB468 cells; conditions: Homo sapiens, MDA-MB-468; 72 h, Cell Titer Glo; read-out: Cell Viability - MDAMB468 cells (activity range), IC50
Experimental: (§1) 3.4 Cell Viability Assays
(§2) Hela- or MDAMB468-Cells were maintained in RPMI 1640 or McCoy's 5A cell culture medium+glutamine (PAN Biotech GmbH, Aidenbach, Germany; order no. PO4-22100; PO4-05500) supplemented with 10% fetal calf serum “Gold” (PAA Laboratories GmbH, Pasching, Austria; order no. A15-151) and grown at 37° C., 5% CO2. For the cell viability assay, cells were seeded with a density of 400 (Hela cells, DSMZ Braunschweig order no. ACC57) or 800 (MDAMB468 cells, ATCC order no. HTB-132) per well in 25 μL in 384-well plates (Greiner Bio-One, Frickenhausen, Germany; order no. 781080). After overnight incubation at 37° C./5% CO2, 25 nL or 75 nL compound were added to each sample well by using BIOMEK FXP Laboratory Automation Workstation (Beckman Coulter, USA). Wells with cells and 0.1% or 0,3% DMSO in culture medium were used as positive controls, wells with cells and 10 μM staurosporine in culture medium were used as negative controls. The cells were incubated with the compounds for 72 h at 37° C./5% CO2. For measurement of cell viability 25 μL Cell Titer Glo reagent (Promega, Madison, USA; order no. G7573), 1:2 diluted with cell culture medium, was added to each well. The 384we11-plates were placed for 2 min on a orbital microplate shaker and incubated for further 10 min at room temperature to stabilize the luminescence signal.
(§3) Luminescence was measured by Envision Plate Reader (Perkin Elmer, USA). IC50 values were calculated with the software Excel Fit (IDBS, Guildford, UK) from 3-fold dilution series comprising at least 8 concentrations in duplicates.

Hela cells = assay: Cell Viability Assay, Hela cells; conditions: Homo sapiens, 72 h, Cell Titer Glo, read-out: Cell Viability - Hela cells (activity range), IC50
Experimental: as §1, §2, §3

Row | Compound | pIC50 [1] | pIC50 (MDAMB468 cells) | pIC50 (Hela cells)
1 | NS(=O)(=O)Cc1cccc(Nc2ncnc(N3CCCCC3)n2)c1 [Compound B1, 3-[(4-(Piperidin-1-yl)-1,3,5-triazin-2-yl)amino]benzenemethane sulfonamide] | < 5.00 | – | –
2 | COC[C@H]1CCCN1c1ncnc(Nc2cccc(CS(N)(=O)=O)c2)n1 [Compound B17, (R)-3-[(4-(2-(Methoxymethyl)pyrrolidin-1-yl)-1,3,5-triazin-2-yl)amino]benzenemethanesulfonamide] | 5.00 to 6.00 | – | –
3 | NS(=O)(=O)Cc1cccc(Nc2ncnc(N3CCc4nc[nH]c4C3)n2)c1 [Compound B44, 3-[(4-(6,7-Dihydro-3H-imidazo[4,5-c]pyridin-5(4H)-yl)-1,3,5-triazin-2-yl)amino]benzenemethanesulfonamide] | – | < 5.00 | < 5.00
4 | NS(=O)(=O)Cc1cccc(Nc2ncnc(N3CCc4ncsc4C3)n2)c1 [Compound B45, 3-[(4-(6,7-Dihydrothiazolo[5,4-c]pyridin-5(4H)-yl)-1,3,5-triazin-2-yl)amino]benzenemethanesulfonamide] | – | 5.00 to 6.00 | 5.00 to 6.00
5 | NS(=O)(=O)Cc1cccc(Nc2ncnc(N3Cc4cn[nH]c4C3)n2)c1 [Compound B51, 3-[(4-(Pyrrolo[3,4-c]pyrazol-5(1H,4H,6H)-yl)-1,3,5-triazin-2-yl)amino]-benzenemethanesulfonamide] | – | < 5.00 | < 5.00
